Measurements from patent publication US8629240B2, “Peptide ligands for clusterin and uses thereof” (National Research Council of Canada, priority 2009, dated 2014).
Ends that are not written are not given here. Peptide text beside a SMILES is read from it. Alexa Fluor 680 C2‑maleimide = near-infrared dye maleimide, coupled by thioether to the C-terminal Cys; DyLight 680 = DyLight 680 fluorophore

Tests used:
[1] = target: T1, rhCLU (recombinant human clusterin) (Homo sapiens, UniProt P10909); assay: SPR biosensor analysis, rhCLU flowed over immobilized peptide; type: binding; settings: for binding of rhCLU to immobilized randomized peptide (Scatchard plot): randomized sequence control peptides; for sequence dependence of the interaction with clusterin: concluded from scrambled peptides
T1 construct: made in house; host or cells: HEK-293 cells
T1 sequence (P10909 23-227 limits assumed): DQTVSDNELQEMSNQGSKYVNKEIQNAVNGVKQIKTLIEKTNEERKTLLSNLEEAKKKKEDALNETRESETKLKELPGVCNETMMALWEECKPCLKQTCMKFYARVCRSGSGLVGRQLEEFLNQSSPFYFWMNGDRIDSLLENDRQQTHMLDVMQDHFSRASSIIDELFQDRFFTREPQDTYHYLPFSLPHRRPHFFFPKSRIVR
T1 sequence (P10909 228-449 limits assumed): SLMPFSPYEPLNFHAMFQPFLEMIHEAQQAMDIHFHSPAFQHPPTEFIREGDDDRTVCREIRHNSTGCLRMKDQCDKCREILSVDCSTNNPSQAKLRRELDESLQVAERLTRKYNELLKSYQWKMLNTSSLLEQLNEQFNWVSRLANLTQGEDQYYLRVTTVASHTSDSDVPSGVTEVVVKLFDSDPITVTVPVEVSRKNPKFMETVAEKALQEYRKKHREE
Description: Peptides were immobilized on research-grade CM5 sensor chips by a maleimide coupling method. CM5 sensor chips (research grade) and EDC were purchased from Biosensor AB (Uppsala, Sweden). This thiol coupling generates a stable thioether bond between reactive maleimide groups on the sensor chip surface and the thiol groups of the peptides. A heterobifunctional reagent, SMCC-hydrazide (4-[N-maleimidomethyl]cyclohexane-1 carboxylhydrazide; 99.5% pure; purchased from Molecular Biosciences Inc. (Boulder, Colo.)), was used to introduce reactive maleimido groups to the sensor surface. Immobilization was performed at 25° C. at a flow rate of 5 μL/min. A continuous flow of the HBS-EP buffer (20 mM HEPES, 150 mM NaCl, 3.4 mM EDTA and 0.05% Tween™-20 at pH 7.4) was maintained over the sensor surface. The carboxylated dextran matrix on the sensor surface was activated by an injection of 50 μL of a freshly mixed solution containing 172 μL of 1.2 mM […] (EDC) in 100 mM MES buffer at pH 5.00, and 28 μL of 17.8 mM SMCC-hydrazide in 40% DMF. The ratio of the SMCC:EDC was 2.5:1. Peptide-coupled surfaces were generated by injecting peptides (30-100 μg/ml) in 100 mM MES buffer (at pH 5.0). The amount of peptide immobilized on the activated surface was controlled by altering the contact time with the peptide solution and was between approximately 400 and 500 RU, or 400-500 pg peptide/mm^2. The immobilization procedure was completed by a 50 μL injection of 50 mM cysteine in 1 M sodium chloride and 0.1M sodium acetate (pH 4) to quench excess active maleimide groups.
Protein-peptide interactions were followed using a BIAcore 3000 instrument (Biosensor AB, Uppsala, Sweden). All binding experiments were carried out at 25° C. under a continuous flow of the HBS-EP buffer (20 mM HEPES, 150 mM NaCl, 3.4 mM EDTA and 0.05% Tween-200) at pH 7.4 over the sensor surface at a flow rate of 20 μL/min. Different concentrations of rh-clusterin in the HBS-EP buffer were injected over the peptide-derivatized sensor chips. Dissociation was monitored for up to 300 s post-injection. The surfaces were fully regenerated by 15 s injection of an HBS-EP buffer solution containing 5 mM NaOH. […] Reference responses from control flow cells, containing unmodified dextran surfaces, were subtracted from peptide-containing flow cells, for each analyte injection using the BiaEvaluation software version 3.0 (Biacore AB, Uppsala, Sweden).
The resulting sensorgrams were used for kinetic rate determination through global fitting of the experimental data to a simple 1:1 Langmuir binding model. […] Affinity data (KD) from the binding studies were obtained by plotting the response in RU at the steady state, Req, versus the concentration of clusterin, C, and by fitting these curves to a one-site binding model, Req=C*xRmax/(C+KD) where Rmax is the value in RU at saturation and Req is the observed optical change in RU at each given C.

[2] = target: T2, epidermal growth factor ectodomain (EGFR-ED) (Homo sapiens, UniProt P00533); assay: SPR specificity test with EGFR ectodomain; type: binding; settings: EGFR-ED 70 nM to 5.63 μM over immobilized peptide
T2 construct: the epidermal growth factor ectodomain (EGFR-ED)
T2 sequence (P00533 25-645 limits assumed): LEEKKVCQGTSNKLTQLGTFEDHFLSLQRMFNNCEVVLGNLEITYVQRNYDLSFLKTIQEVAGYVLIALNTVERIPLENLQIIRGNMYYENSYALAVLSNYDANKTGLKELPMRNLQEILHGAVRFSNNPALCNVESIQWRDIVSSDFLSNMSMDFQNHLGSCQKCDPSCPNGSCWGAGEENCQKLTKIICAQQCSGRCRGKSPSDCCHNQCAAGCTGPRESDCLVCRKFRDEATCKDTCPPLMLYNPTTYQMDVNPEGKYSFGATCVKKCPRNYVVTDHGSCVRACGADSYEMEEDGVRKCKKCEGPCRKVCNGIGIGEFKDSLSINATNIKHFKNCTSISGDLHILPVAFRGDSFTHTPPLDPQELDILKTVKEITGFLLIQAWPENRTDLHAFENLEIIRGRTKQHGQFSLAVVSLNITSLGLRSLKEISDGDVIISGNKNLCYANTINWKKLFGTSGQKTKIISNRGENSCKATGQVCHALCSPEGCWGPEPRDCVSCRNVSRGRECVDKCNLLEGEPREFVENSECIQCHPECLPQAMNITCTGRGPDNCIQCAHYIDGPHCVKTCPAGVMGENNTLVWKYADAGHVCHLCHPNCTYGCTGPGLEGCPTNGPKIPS
Method: (§1) The specificity of the clusterin-peptide interactions was investigated using SPR biosensor analysis and proteins unrelated to clusterin. Immobilization of the peptides and other proteins on the sensor chips and the SPR experiments were conducted as described in Example 4.

[3] = target: T3, extracellular domain of the Type II TGF-beta receptor (Homo sapiens, UniProt P37173); assay: SPR specificity test with Type II TGF-beta receptor extracellular domain; type: binding; settings: receptor 38 nM to 4.5 μM over immobilized peptide
T3 construct: the extracellular domain of the Type II TGF-beta receptor
T3 sequence (P37173 23-166 limits assumed): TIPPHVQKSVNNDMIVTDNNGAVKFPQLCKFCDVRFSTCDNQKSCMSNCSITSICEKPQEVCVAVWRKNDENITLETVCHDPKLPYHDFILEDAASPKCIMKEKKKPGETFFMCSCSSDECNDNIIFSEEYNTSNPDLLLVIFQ
Method: as §1
FIG. 8 presents SPR biosensor sensorgrams showing the interaction of the extracellular domain of the Type II TGF-beta receptor (38 nM to 4.5 μM) with immobilized P3378 (500 RUs) (FIG. 8A) or P3375 (1200 RUs) (FIG. 8B).

rh-clusterin = target: T4, rh-clusterin (Homo sapiens, UniProt P10909); assay: STD-NMR binding of synthetic peptides to rh-clusterin; settings: ~1:30 protein:peptide, 298K
T4 construct: made in house; host or cells: HEK-293 cells
T4 sequence (P10909 23-227 limits assumed): as the sequence (P10909 23-227 limits assumed) above
T4 sequence (P10909 228-449 limits assumed): as the sequence (P10909 228-449 limits assumed) above
Method: To confirm direct binding of the peptides of Example 1 to clusterin, the interaction of the synthetic peptides of Example 2 with clusterin was tested using Nuclear Magnetic Resonance Saturation Transfer Difference (STD-NMR; Mayer & Meyer, 2001)
NMR samples were prepared by dissolving 0.15 mM of peptides in 50 mM sodium phosphate buffer, 0.2 mM EDTA, pH 6.5. rh-clusterin (˜1 mg/ml) in 5 mM sodium phosphate buffer, 0.02 mM EDTA, pH 7.4, was added to ˜1:30 protein:peptide ratio.
All NMR experiments were performed at 298K on a Bruker Avance800™ NMR spectrometer equipped with a 5 mm triple-resonance probe with three-axis gradients. Saturation transfer difference (STD) spectra was recorded using WATERGATE version of STD pulse sequence (35) with a 3 s selective saturation pulse applied in the relaxation delay and a 20 ms spinlock pulse with a field strength of 12.25 kHz. The saturation pulse was implemented using a pulse train of 49 ms Gaussian-shaped selective pulse and 1 ms interpulse delay. Each Gaussian-shaped pulse had 1000 points with a 1% truncation and was applied with a field strength of 75.9 Hz. STD spectra were recorded with a spectral width of 16025.64 Hz and 32 K data points. Time domain signals were accumulated with 1024 and 4096 scans for the free and complexed sample, respectively. NMR data were processed using Bruker Xwinnmr 2.6. An exponential weighting function of 7 Hz was applied prior to Fourier transformation and polynomial baseline correction.
NMR signals of peptide P3378 and rh-clusterin were severely overlapped, making it impossible to apply the above saturation pulse exclusively on rh-clusterin resonances without disturbing those of the peptide. In order to identify the binding interactions in the P3378-rh-clusterin complex, a new experimental scheme was implemented by applying the on-resonance saturation pulse at methyl resonances (0.912 ppm) and the off-resonance irradiation at −7.799 ppm (referenced H2O to 4.700 ppm). […]

4T1 tumor [4] = tested on: 4T1 tumor
Method: As a model system, 4T1 mouse mammary carcinoma cell line cells were used to generate tumors in syngeneic BALB/c mice. […] Six to eight weeks old female BALB/c mice were obtained from Charles River. […] A 50 μl 1:1 solution of sterile Matrigel and saline, or the same solution containing 4T1 mouse mammary tumor cells (5×10^6 cells), was injected subcutaneously into the right hind thigh of the animal. Clippers and Nair were used to remove hair from the injection site as well as the lower back and the left thigh of the animals prior to the Matrigel and tumor cell injections. When tumors measured ˜0.5 to 0.8 cm in diameter (6-8 days), the tumor-bearing mice were subjected to in vivo imaging.
Animals were imaged using the following procedures. Animals were anesthetized using isoflurane (3% in O2 at 2 L/min). Prior to the injection of the labeled peptides, animals were subjected to a full body scan to obtain a background fluorescence image. P3378-Alexa680 or P3378R-Alexa680 was administered (25 nmol in 100 μL sterile saline) via the tail vein using a 0.5-ml insulin syringe with a 27-gauge fixed needle. Immediately after, the animal was placed on the heated animals plate (39° C.) of the ART eXplore Optix MX2 imaging system (Advanced Research Technologies, Montreal, Canada). Laser power and counting time per pixel were optimized at 9.6 μW and 0.5 s, respectively. These values remained constant during the entire experiment. The raster scan interval was set at 1.5 mm and was held constant during the acquisition of each image. The data were recorded as Temporal Point-Spread Functions (TPSF), and fluorescence intensity and fluorescence lifetime maps were generated. All images were analyzed using the ART Optix OptiView™ software. Volume data and 3D images were reconstructed using the ART OptiView™ 3D Reconstruction Software Module. All animals were euthanized after the imaging experiments.
Animals were imaged in the ART Optix MX2 small animal imager using three approaches: • a. Mice were injected intravenously (i.v.) via the tail vein with either 5 nanomoles of P3378 peptide labeled with Alexa680, or P3378R peptide labeled with Alexa680; • b. Mice were injected intravenously (i.v.) via the tail vein with either 25 nanomoles of P3378 peptide labeled with Alexa680, or P3378R peptide labeled with Alexa680; • c.

[5] = tested on: 4T1 tumor and organs (liver, spleen, pancreas, kidney, heart, lungs); assay: Confocal microscopy of probe distribution in 4T1 tumor and organs; type: in vivo, mouse; settings: 25 nmoles, 15 min post-injection, frozen sections
Method: Confocal microscopy was used to evaluate the distribution of the P3378-DL680 probe in the 4T1 tumor and various organs (liver, spleen, pancreas, kidney, heart, lungs), harvested 15 min post-injection. […] DAPI staining of the nuclei was used to visualize tissue morphology.

4T1 tumor [6] = assay: In vivo blocking experiment with excess unlabeled peptide; design: species or system mouse
Method: To further validate the specificity of the in vivo targeting ability of the P3378-DL680 probe, a blocking experiment using an excess of unlabeled P3378 peptide was carried out. Mice received 25 nmoles of P3378-DL680 alone (n=1) or in combination with 5 μmoles unlabeled P3378 or P3378R peptide (both n=2) in 100 μL sterile saline. Animals in the control groups received 25 nmoles of P3378-DL680 with or without 5 μmoles of the unlabeled scrambled P3378R peptide, whereas the experimental animals were injected with 25 nmoles of P3378-DL680 in combination with 5 μmoles of unlabeled P3378 peptide. […] Furthermore, using the gated NIRF lifetime and the OptiView 3D reconstruction module we selected in each mouse the slice along the Z-axis that contained the highest concentration of P3378-DL680 and determined its relative concentration.

[7] = global fit, one-to-one Langmuir binding model, 25° C.

LSLYHTNTQFWQSGSGC (Randomized control for P3375) [P3375R, randomized version of P3375, reference compound]
binding of rhCLU to immobilized randomized peptide (Scatchard plot) [1]: bound

CC(C)C[C@H](NC(=O)[C@H](CCC(N)=O)NC(=O)[C@H](CO)NC(=O)[C@H](Cc1c[nH]c2ccccc12)NC(=O)[C@H](Cc1ccc(O)cc1)NC(=O)[C@@H](NC(=O)[C@@H](N)CC(N)=O)[C@@H](C)O)C(=O)N[C@@H](CC(C)C)C(=O)N[C@@H](Cc1c[nH]cn1)C(=O)N[C@@H](Cc1ccccc1)C(=O)N[C@@H](CCC(N)=O)C(=O)N[C@H](C(=O)N[C@@H](CO)C(=O)NCC(=O)N[C@@H](CO)C(=O)NCC(=O)N[C@@H](CS)C(=O)O)[C@@H](C)O [P3375]
binding to EGFR-ED [2]: do not bind specifically
interaction with Type II TGF-beta receptor [3]: no significant signal was observed
binding to clusterin by STD-NMR (rh-clusterin): confirmed
sequence dependence of the interaction with clusterin [1]: not peptide sequence specific
koff [1, 7]: 0.006 ± 0.0002 s⁻¹
kon [1, 7]: 11200 M⁻¹ s⁻¹

AWHTLASTSLAPSGSGC (Randomized control for P3376) [P3376R, randomized version of P3376, reference compound]
binding of rhCLU to immobilized randomized peptide (Scatchard plot) [1]: bound

P3378-Alexa680: P3378 peptide labeled with Alexa Fluor 680 C2-maleimide (HPLSKHPYWSQPSGSGC(Alexa Fluor 680 C2‑maleimide))
accumulation in the tumor (as well as kidney and bladder) (4T1 tumor [4]; 5 or 25 nanomoles i.v., Alexa680 label): accumulation

P3378-DL680: P3378 peptide labeled with Dylight680 fluorophor (HPLSKHPYWSQPSGSGC(DyLight 680))
uptake of the fluorescent probe in the 4T1 tumor [5]: specific uptake and accumulation
relative concentration of the probe at the tumor site (4T1 tumor [6]; in the presence of excess scrambled P3378R peptide vs probe alone): only slightly affected
relative concentration of the probe at the tumor site, times lower (4T1 tumor [6]; in the presence of excess unlabeled P3378 peptide vs probe alone): 3-4 times

CC(C)C[C@H](NC(=O)[C@@H]1CCCN1C(=O)[C@H](CC(C)C)NC(=O)[C@H](C)NC(=O)[C@H](Cc1c[nH]cn1)NC(=O)[C@@H](N)CO)C(=O)N[C@H](C(=O)N[C@@H](Cc1c[nH]c2ccccc12)C(=O)N[C@@H](CO)C(=O)N[C@H](C(=O)N[C@@H](C)C(=O)N[C@@H](C)C(=O)N[C@@H](CO)C(=O)NCC(=O)N[C@@H](CO)C(=O)NCC(=O)N[C@@H](CS)C(=O)O)[C@@H](C)O)[C@@H](C)O [P3376, SHALPLTWSTAA]
binding to clusterin by STD-NMR (rh-clusterin): confirmed
sequence dependence of the interaction with clusterin [1]: not peptide sequence specific

CC(C)C[C@H](NC(=O)[C@H](Cc1ccc(O)cc1)NC(=O)[C@@H]1CCCN1)C(=O)N[C@@H](Cc1c[nH]cn1)C(=O)N[C@@H](CCC(N)=O)C(=O)N[C@@H](CO)C(=O)N1CCC[C@H]1C(=O)N[C@@H](Cc1c[nH]cn1)C(=O)N[C@@H](Cc1c[nH]c2ccccc12)C(=O)N[C@@H](CCCCN)C(=O)N1CCC[C@H]1C(=O)N[C@@H](CO)C(=O)N[C@@H](CO)C(=O)NCC(=O)N[C@@H](CO)C(=O)NCC(=O)N[C@@H](CS)C(=O)O [P3378R, PYLHQSPHWKPSSGSGC, reference compound] (H-PYLHQSPHWKPSSGSGC-OH)
accumulation in the kidneys (4T1 tumor [4]; mouse, in vivo): faster accumulation
